Source: patent US20020022657A1, “Methods for modulating neuronal cell death” (priority 1998, published 2002)

Test system: Aβ-induced toxicity
Experiment: Aβ-induced toxicity, neuroprotection by Aβ-interferer (FIG. 6)
Assay type: cell-based
Details: Aβ: laminin molar ratio of 1:10^−3; internal positive control

Substance: laminin
- Aβ-induced toxicity: neuroprotective
